Laboratory results taken from a melting point compilation (Tetko et al.; mined from patent text by program, amines drawn as free bases though some values may be those of a salt).

Q: Which melting point does the source give for `CCCn1c(CCOC)nc2c(N)nc3cc(OC4CCN(C(=O)C(C)C)CC4)ccc3c21` here?
A: 165 to 166 °C

Q: For `COC(=O)C(O)C(F)(F)F` (stereo not given), which melting point is on record?
A: 50 to 53 °C

Q: With `CCCC1=C(C(=O)OCC)C(c2cccc(C)c2OC)c2c[nH]nc2N1` (stereo not given) as the compound, how does the melting point read?
A: 220 to 222 °C

Q: With `CCN(CCO)C(=O)C1=C(C(=O)Nc2cc(OC3CCCC3)c(Cl)cc2F)CCCC1` as the compound, how does the melting point read?
A: 132 to 133 °C

Q: With `Cc1c(-c2cc(Nc3cc4n(n3)CCN(C)C4)c(=O)[nH]n2)cccc1N1Cc2ccc(C(C)(C)C)cc2C1=O` as the compound, how does the melting point read?
A: 208 to 210 °C

Q: For `ON=C1CCCc2occ(-c3cccc(Cl)c3)c21`, which melting point is on record?
A: 157 to 158 °C

Q: With `Cc1c(-c2ccc(Cl)nc2)sc2nc(N)[nH]c(=O)c12` as the compound, how does the melting point read?
A: 230 to 250 °C

Q: For `CN1CCN(c2nn(-c3ccc(Cl)cc3Cl)c3ccccc23)CC1`, which melting point is on record?
A: 150 to 152 °C

Q: With `CNc1nc(-c2ccccc2)c(-c2nc3ccccc3c(=O)n2-c2ccc(C(C)=O)cc2)s1` as the compound, how does the melting point read?
A: 239 to 240 °C

Q: Which melting point does the source give for `Cc1cc(Oc2cc(C(F)(F)F)nn2C)nc(C(=O)Nc2ccc(F)cc2)c1` here?
A: 133 °C

Q: For `CN1CS(=O)c2ccccc21` (stereo not given), which melting point is on record?
A: 70 to 73.5 °C

Q: With `N#Cc1cnn2c1NCC=C2c1ccc(Cl)cc1` as the compound, how does the melting point read?
A: 208 to 209 °C

Q: With `CCCCc1ncc(CSC(CC(=O)O)C(=O)O)n1Cc1ccc(C(=O)O)cc1` (stereo not given) as the compound, how does the melting point read?
A: 140 °C

Q: For `O=S(=O)(c1ccccc1)c1ccc(Cl)cn1`, which melting point is on record?
A: 154 to 155 °C

Q: Which melting point does the source give for `Clc1ccc(Nc2nnc(NCc3ccncc3)c3ccccc23)cc1` here?
A: 233 to 236 °C

Q: Which melting point does the source give for `CCC(=NOc1ccc(Cl)cc1)c1cc(Cl)ccc1NS(=O)(=O)C(F)(F)F` here?
A: 87 to 88 °C

Q: With `CC(C)(C)OC(=O)NCC1CNC1` as the compound, how does the melting point read?
A: 112 to 114 °C

Q: With `Cc1c(Cc2ccc(C(C)C)cc2)c2c(c(C)c1NC(=O)CC(C)(C)C)CC(C)O2` (stereo not given) as the compound, how does the melting point read?
A: 179 to 180 °C

Q: Which melting point does the source give for `CCOC(=O)C1=C(COCCNC(=O)c2cccnc2)NC(C)=C(C(=O)OC)C1c1ccccc1Cl` (stereo not given) here?
A: 81 to 84 °C

Q: Which melting point does the source give for `Clc1cc2c(cc1Cl)CCC(N1CCCC1)=C2` here?
A: 141 to 142 °C

Q: With `COCOc1ccc(Cc2cccc(-c3c(O)c4ccc(Cl)cc4[nH]c3=O)c2)cc1` as the compound, how does the melting point read?
A: 261 to 264 °C

Q: For `Clc1cccc(Cl)c1-c1nc(-c2ccccc2)c(-c2ccccc2)[nH]1`, which melting point is on record?
A: 125 to 127 °C

Q: Which melting point does the source give for `CCCCc1nnc(SCc2ccc(Cl)cc2)n1Cc1ccc(-c2ccccc2-c2nnn[nH]2)cc1` here?
A: 92 to 93 °C

Q: With `c1ccc(N2c3ccccc3C3CN(CC45CC6CC(CC(C6)C4)C5)CCC32)cc1` (single isomer, unassigned; (+)) as the compound, how does the melting point read?
A: 117 to 119 °C

Q: Which melting point does the source give for `CC12CCCc3cc(NC(=O)c4ccc(C(=O)O)cn4)cc(c31)CCC2` here?
A: 212 to 213 °C

Q: Which melting point does the source give for `CCC1C(C)=NN=C(c2ccc(O)c(OC)c2)c2cc(OC)c(O)cc21` (stereo not given) here?
A: 210 to 212 °C

Q: With `CCCSC1(C(F)(F)F)CN(C2CC2)C(=O)Nc2ccc(Cl)cc21` (stereo not given) as the compound, how does the melting point read?
A: 150 to 151 °C

Q: For `O=C(c1ccc(Oc2ccc(F)cc2)nc1)N1CCCNCC1`, which melting point is on record?
A: 95.4 °C

Q: Which melting point does the source give for `Cc1c(OCCCCCCC(=O)N(CCO)C2CCCCC2)ccc2c1CN1CC(=O)NC1=N2` here?
A: 148 to 150 °C

Q: With `NC(=O)Cn1c(=O)ccc2cc(Br)ccc21` as the compound, how does the melting point read?
A: 257 to 258 °C

Q: With `CCCCCCCCCCCCCCCCCCOc1ccc(NC(=O)c2ccc(OC(C)=O)cc2)cc1` as the compound, how does the melting point read?
A: 154 °C

Q: For `CC(C)OC(=O)N1CCN(c2ccc3oc(-c4ccc(S(C)(=O)=O)cc4F)nc3c2)CC1`, which melting point is on record?
A: 231 to 234 °C

Q: For `CCCCCCCCCCOCc1ccc(CO)cc1`, which melting point is on record?
A: 20 to 31 °C

Q: With `CC(C)OC(=O)N1CCC(c2ccc3nc(-c4ccc(S(C)(=O)=O)cc4F)sc3c2)CC1` as the compound, how does the melting point read?
A: 163 to 166 °C

Q: For `CC(C)[C@H](NC(=O)N(C)Cc1ccccn1)C(=O)N[C@@H](Cc1ccccc1)[C@@H](O)C[C@H](Cc1ccccc1)NC(=O)OCc1cccnc1`, which melting point is on record?
A: 69 to 71 °C

Q: Which melting point does the source give for `O=C(Cl)N1CC(Oc2cccc(C(F)(F)F)c2)C1` here?
A: 72.5 to 74 °C

Q: For `C=CCOC(=O)Nc1cc(C(C)(C)C)[nH]n1`, which melting point is on record?
A: 131 to 132 °C

Q: With `O=[N+]([O-])c1ccc(SSc2nccc(O)n2)c(C(Cl)(Cl)Cl)c1` as the compound, how does the melting point read?
A: 174 °C

Q: With `CCCCc1[nH]c(=O)c(C#N)cc1C(C)=O` as the compound, how does the melting point read?
A: 195 to 197 °C

Q: For `CCCCc1nnc(C(=O)N(C)Cc2ccccc2)n1Cc1ccc(-c2ccccc2-c2nnn[nH]2)cc1`, which melting point is on record?
A: > 95 °C

Q: With `CCOC(=O)Nn1cccc1` as the compound, how does the melting point read?
A: 60 to 61 °C

Q: For `O=C(Cl)N1CCOCC1`, which melting point is on record?
A: 138 to 139 °C

Q: For `Cc1cc(Cn2nc(-c3ccccc3)oc2=O)cc(C(C)(C)C)c1O`, which melting point is on record?
A: 152 °C

Q: With `O=C(NCCO)/C(=C/c1ccc(C(F)(F)F)cc1F)NC(=O)c1ccc(OCCC(F)(F)F)cc1` as the compound, how does the melting point read?
A: 203 to 205 °C

Q: For `c1ccc(COc2ccc3[nH]c(-c4ccccc4)cc3c2)cc1`, which melting point is on record?
A: 168 to 170 °C

Q: With `CCOC(=O)c1cc(=O)c2cc(OCCC(C)C)ccc2s1` as the compound, how does the melting point read?
A: 83 to 84 °C

Q: With `COc1ccc(C2=NN(c3ccccc3)C(=O)[C@H]3CC=CC[C@@H]23)cc1OC` (relative stereo) as the compound, how does the melting point read?
A: 134 to 135 °C

Q: Which melting point does the source give for `C/C=C/CC(=O)N[C@H]1CC[C@H](CCN2CCC(c3cccc4c3CCO4)CC2)CC1` here?
A: 196 °C

Q: Which melting point does the source give for `N#Cc1c(O)cccc1[N+](=O)[O-]` here?
A: 200 °C

Q: Which melting point does the source give for `NS(=O)(=O)c1ccc(S(=O)(=O)CC(O)CO)cc1` (stereo not given) here?
A: 140 to 147 °C
